From patent US20090088439A1, “Diazinane Compounds” (priority 2007, published 2009)
pEC50: −log10 of the molar value.

Columns and labels:
[1] = target: T1, GABAB(1A,2) receptor heterodimer (Homo sapiens, UniProt O75899+Q9UBS5); assay: GTPγS35 radioligand filtration-binding assay for determination of PAM potency; format: biochemical; details: membranes of CHO-K1 cells expressing GABABR1a/GABABR2; concentration required to reduce GABA's EC50 by 50%; PAM at 10, 1, 0.1 and 0.01 μM; read-out: Mean (EC50 derived) PAM EC50
T1 construct: expressed in transfected cells; membrane preparation
T1 sequence (Q9UBS5 15-961 limits assumed): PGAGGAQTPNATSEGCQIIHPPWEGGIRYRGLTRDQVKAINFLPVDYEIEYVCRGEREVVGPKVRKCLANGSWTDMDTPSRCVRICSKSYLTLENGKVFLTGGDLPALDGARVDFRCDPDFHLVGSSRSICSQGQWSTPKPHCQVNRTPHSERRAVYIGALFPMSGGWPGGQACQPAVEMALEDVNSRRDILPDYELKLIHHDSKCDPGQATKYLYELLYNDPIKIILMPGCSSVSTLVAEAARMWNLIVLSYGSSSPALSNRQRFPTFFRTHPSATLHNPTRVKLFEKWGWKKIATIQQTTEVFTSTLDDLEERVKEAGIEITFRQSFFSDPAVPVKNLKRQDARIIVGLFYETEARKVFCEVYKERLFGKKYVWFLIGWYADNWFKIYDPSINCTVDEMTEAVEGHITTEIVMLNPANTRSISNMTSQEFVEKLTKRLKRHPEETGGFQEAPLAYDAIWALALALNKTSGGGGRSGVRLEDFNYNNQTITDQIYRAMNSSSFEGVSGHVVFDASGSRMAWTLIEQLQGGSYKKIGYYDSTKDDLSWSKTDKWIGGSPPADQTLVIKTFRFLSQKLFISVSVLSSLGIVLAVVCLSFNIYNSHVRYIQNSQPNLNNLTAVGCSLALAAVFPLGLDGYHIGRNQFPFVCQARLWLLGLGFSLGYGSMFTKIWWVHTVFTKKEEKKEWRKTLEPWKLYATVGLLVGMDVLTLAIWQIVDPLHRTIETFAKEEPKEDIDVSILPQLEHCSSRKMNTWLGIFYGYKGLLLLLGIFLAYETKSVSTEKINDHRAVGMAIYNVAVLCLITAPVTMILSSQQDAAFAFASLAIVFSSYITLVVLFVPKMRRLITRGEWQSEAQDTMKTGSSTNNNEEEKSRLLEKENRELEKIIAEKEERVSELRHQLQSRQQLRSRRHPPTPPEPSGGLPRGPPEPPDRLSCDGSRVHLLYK
T1 sequence (O75899 42-941): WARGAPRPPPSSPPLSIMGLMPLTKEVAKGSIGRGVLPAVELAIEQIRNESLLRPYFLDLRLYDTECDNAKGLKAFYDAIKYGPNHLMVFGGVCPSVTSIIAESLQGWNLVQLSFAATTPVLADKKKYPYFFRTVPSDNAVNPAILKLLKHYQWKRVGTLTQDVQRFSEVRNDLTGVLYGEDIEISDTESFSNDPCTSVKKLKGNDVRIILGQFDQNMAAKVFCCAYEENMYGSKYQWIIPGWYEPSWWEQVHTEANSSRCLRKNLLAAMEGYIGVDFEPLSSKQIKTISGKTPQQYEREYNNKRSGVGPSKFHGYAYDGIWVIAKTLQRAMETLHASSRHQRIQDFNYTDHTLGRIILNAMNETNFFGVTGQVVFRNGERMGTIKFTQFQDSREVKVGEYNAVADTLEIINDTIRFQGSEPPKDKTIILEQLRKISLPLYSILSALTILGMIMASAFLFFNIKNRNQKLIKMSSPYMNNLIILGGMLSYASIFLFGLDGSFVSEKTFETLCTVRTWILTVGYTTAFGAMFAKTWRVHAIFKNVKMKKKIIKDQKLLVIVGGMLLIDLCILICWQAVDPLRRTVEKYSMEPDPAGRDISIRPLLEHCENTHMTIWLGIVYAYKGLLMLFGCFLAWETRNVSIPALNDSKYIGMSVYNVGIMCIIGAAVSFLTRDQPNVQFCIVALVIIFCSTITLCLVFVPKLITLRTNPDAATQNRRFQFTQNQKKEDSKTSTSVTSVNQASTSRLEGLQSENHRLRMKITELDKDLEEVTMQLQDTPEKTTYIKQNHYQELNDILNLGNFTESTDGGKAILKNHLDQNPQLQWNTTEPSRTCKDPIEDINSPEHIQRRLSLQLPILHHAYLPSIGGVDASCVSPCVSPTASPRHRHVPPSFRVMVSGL
Source text: The effect of GABA in an automated GTPγS^35 radioligand filtration-binding assay in CHO cells expressing the GABAB(1A,2) receptor heterodimer was studied in the presence or absence of the positive allosteric modulator test compounds. […]
(§1) The GABAB receptor is a G-protein coupled receptor. Binding of a ligand activates the receptor leading to recruitment of G-protein and a substitution of the G-protein bound GDP to GTP. The G-protein becomes active. The G-protein is inactivated by hydrolysis of GTP to GDP. G-proteins are membrane bound and therefore present in membrane preparations.
(§2) In the GTPγS^35 assay, GTP is not present but instead GTPγS^35 where one of the phosphate groups are substituted to a sulphur group which cannot be hydrolysed. Upon activation of the receptor, radiolabelled GTPγS^35 replaces the GDP. The complex cannot be inactivated and the radiolabelled complex is accumulating. At the end of the assay, the reaction mixture is filtered through a membrane-binding filter. Excess GTPγS^35 is removed by washing and the membrane bound S^35, which correlates to the degree of receptor activation, is measured with a β-Liquid Scintillation Counter.
GABABR1a and GABABR2 were cloned from human brain cDNA and subcloned into pCI-Neo (Promega) and pALTER-1 (Promega), respectively.
In order to optimise the Kozak consensus sequence of GABABR2, in situ mutagenesis was performed using the Altered Sites Mutagenesis kit according to manufacturer's instruction (Promega) with the following primer,
5′-[…]-3′. The optimised GABABR2 was then restricted from pALTER-1 with Xho I+Kpn I and subcloned into the mammalian expression vector pcDNA3.1(−)/Zeo (Invitrogen) to produce the final construct, pcDNA3.1(−)/Zeo-GABABR2.
For generation of stable cell lines, CHO-K1 cells were grown in Nut mix F-12 (Ham) media supplemented with 10% FBS, 100 U/ml Penicillin and 100 μg/ml Streptomycin at 37° C. in a humidified CO2-incubator. The cells were detached with 1 mM EDTA in PBS and 1 million cells were seeded in 100 mm petri dishes. After 24 hours the culture media was replaced with OptiMEM and incubated for 1 hour in a CO2-incubator.
For generation of a cell line expressing the GABABR1a/GABABR2 heterodimer, GABABR1a plasmid DNA (4 μg) GABABR2 plasmid DNA (4 μg) and lipofectamine (24 μl) were mixed in 5 ml OptiMEM and incubated for 45 minutes at room temperature. The cells were exposed to the transfection medium for 5 hours, which then was replaced with culture medium. The cells were cultured for an additional 10 days before selection agents (300 μg/ml hygromycin and 400 μg/ml geneticin) were added. Twenty-four days after transfection, single cell sorting into 96-well plates by flow cytometry was performed using a FACS Vantage SE (Becton Dickinson, Palo Alto, Calif.). After expansion, the GABAB receptor functional response was tested by measuring the GABAB receptor dependent release of intracellular calcium in a fluorescence imaging plate reader (FLIPR). The clone with the highest functional response was collected, expanded and then subcloned by single cell sorting. The clonal cell line with the highest peak response in the FLIPR was used in the present study.
GTPγS^35 radioligand filtration-binding assays were performed using an automated workstation at 30° C. for 1 hour in assay buffer (50 mM HEPES, 40 mM NaCl, 1 mM MgCl2×6H2O, 30 μg/mL Saponin, pH 7.4 at RT) containing 0.025 μg/μL of membrane protein (prepared from the cell line described above), 10 μM GDP and 0.55 nCi/μL GTPγS^35 in a final volume of 60 μL. The reaction was started by the addition of serially diluted GABA (final start concentration 1 mM dilution factor 3) in the presence or absence of four concentrations (final conc 10, 1, 0.1 and 0.01 μM) of PAM. The reaction was terminated and membranes collected by addition of ice-cold wash buffer (50 mM Tris-HCl, 5 mM MgCl2×6H2O, 50 mM NaCl, pH 7.4 at 4° C.) followed by rapid filtration under vacuum through a MultiScreen HTS 384 FB filter plate. […]

[2] = target: T2, GABABR1a/GABABR2 heterodimer (Homo sapiens, UniProt O75899+Q9UBS5); assay: GTPγS35 radioligand filtration-binding assay for determination of agonist potency; format: biochemical; details: membranes of CHO K1 Flp-In cells expressing GABABR1a/GABABR2; compound alone
T2 construct: expressed in transfected cells; membrane preparation
T2 sequence (Q9UBS5 15-961 limits assumed): as the sequence (Q9UBS5 15-961 limits assumed) above
T2 sequence (O75899 42-941): as the sequence (O75899 42-941) above
Description: The potency and efficacy of the compounds acting as agonists at the GABAB receptor was also determined in a automated GTPγS^35 radioligand filtration-binding assay.
as §1, §2
The human GABABR1a was subcloned into pIRESneo3 (Clontech) using GABABR1a construct as a template (refseqN NM001470). GABABR2 was subcloned into pCDNA5/FRT (Invitrogen) using GABABR2 construct as a template (refseqN NM005458). The Kozak sequence GCCACC was introduced before the start codon in both constructs.
For generation of stable cell lines, CHO K1 Flp-In cells (Invitrogen) were grown in DMEM/F 12 1:1 media supplemented with 10% FBS at 37° C. in a humidified CO2-incubator. The cells were detached with Accutase and 1.5 million cells were seeded into T75 flasks. After 24 h, transfection of the cells were performed with the GABABR2 construct. For generation of cell lines expressing GABABR2, GABABR2 plasmid (1 μg) and pOG44 from Invitrogen (9 μg) were mixed with 30 μl Lipofectamine 2000 in 600 μl OptiMEM for 20 minutes. The cells were exposed to transfection medium for 5 hours and was then replaced with culture medium. After 2 days 0.5 mg/ml Hygromycin were added to culture medium. The cells were cultured for an additional 10 days to establish a stable cell mix expressing GABABR2. For generation of a cell line expressing the GABABR1a/GABABR2 heterodimer, GABABR1a plasmid DNA (8 μg) and Lipofectamine (30 μl) were mixed in 600 μl OptiMEM and incubated for 20 minutes before added to CHO-Flp-In cells expressing GABABR2. After 2 days additional selection agent was added (0.8 mg/ml Geneticin). The cells were cultured for another 10 days to generate a stable mixed population expressing the GABABR1a/GABABR2 heterodimer. The cell line was analyzed by GTPγS^35 assay with GABA as agonist.
GTPγS^35 radioligand filtration-binding assays were performed using an automated workstation at 30° C. for 1 hour in assay buffer (50 mM HEPES, 40 mM NaCl, 1 mM MgCl2×6H2O, 30 μg/mL Saponin, pH 7.4 at RT) containing 0.025 μg/μL of membrane protein (prepared from the cell line described above), 10 μM GDP and 0.55 nCi/μL GTPγS^35 in a final volume of 60 μL. The reaction was started by the addition of compounds (GABA was always included as a positive control), start concentration 100 μM dilution factor 3. The reaction was terminated and membranes collected by addition of ice-cold wash buffer (50 mM Tris-HCl, 5 mM MgCl2×6H2O, 50 mM NaCl, pH 7.4 at 4° C.) followed by rapid filtration under vacuum through a MultiScreen HTS 384 FB filter plate. Repeated washing of the filters with ice-cold wash buffer washed the unbound radioligand away. The filter plates were dried for 1½-2 hours at 50° C., then 8 μL scintillation liquid was added per well followed by incubation at RT for at least 20 minutes before bound radioactivity was determined using a β-Liquid Scintillation Counter (1450 Microbeta Trilux, Wallac, Finland)
100% activation (max) is calculated as the mean value for wells containing 1 mM GABA. […]

pEC50 [1] | pEC50 [2] | Structure (SMILES)
6.10 | 5.33 | CC(C)(C)CCn1c(=O)n(Cc2ccc(Cl)cc2)c(=O)c2nccnc21 [Example 6, 3-(4-chlorobenzyl)-1-(3,3-dimethylbutyl)pteridine-2,4(1H,3H)-dione]
5.89 | 4.43 | CCCn1c(=O)n(Cc2ccc(Cl)cc2)c(=O)c2nc(C)c(C)nc21 [Example 15, 3-(4-chlorobenzyl)-6,7-dimethyl-1-propylpteridine-2,4(1H,3H)-dione]
6.10 | 6.10 | CCCn1c(=O)n(Cc2ccc(Cl)cc2)c(=O)c2nc3c(nc21)CCCC3 [Example 20, 3-(4-chlorobenzyl)-1-propyl-6,7,8,9-tetrahydrobenzo[g]pteridine-2,4(1H,3H)-dione]
